# Data reported in US10022354B2, “Pyrrolidine amide compounds as histone demethylase inhibitors” (GENENTECH, INC., priority 2014, dated 2018).
# Molecular target: full length KDM5A enzyme (Homo sapiens (Human), UniProt P29375)
# Assay: KDM5 Enzyme Assay (KDM5A HTRF)
# Assay type: biochemical
# Conditions: 2 nM full length KDM5A, 100 nM H3K4Me3 peptide, 1 uM 2-OG, 30 min room temperature
# Experimental: Full length KDM5A enzyme was expressed and purified inhouse. Biotin-H3K4me3 peptide was purchased from New England Biolabs. HTRF reagents (containing Eu-labeled H3K4me1-2 antibody, and streptavidin-XL665) were purchased from Cis-Bio International. Plates were read on an Envision multi-label plate reader (Perkin Elmer).
# The HTRF assay mixture contained 2 nM full length KDM5A enzyme, 100 nM H3K4Me3 peptide substrate, 1 uM 2-OG, 100 uM Fe^2+, 500 uM ascorbate. 50 mM HEPES pH 7.0 buffer, 0.01% Triton-X 100, 2 mM DTT, 0.25% DMSO at a final volume of 10 uL.
# The plates were incubated at room temperature for 60 minutes and then read in the Envision plate reader.
# Chain of full length KDM5A enzyme (P29375 whole entry): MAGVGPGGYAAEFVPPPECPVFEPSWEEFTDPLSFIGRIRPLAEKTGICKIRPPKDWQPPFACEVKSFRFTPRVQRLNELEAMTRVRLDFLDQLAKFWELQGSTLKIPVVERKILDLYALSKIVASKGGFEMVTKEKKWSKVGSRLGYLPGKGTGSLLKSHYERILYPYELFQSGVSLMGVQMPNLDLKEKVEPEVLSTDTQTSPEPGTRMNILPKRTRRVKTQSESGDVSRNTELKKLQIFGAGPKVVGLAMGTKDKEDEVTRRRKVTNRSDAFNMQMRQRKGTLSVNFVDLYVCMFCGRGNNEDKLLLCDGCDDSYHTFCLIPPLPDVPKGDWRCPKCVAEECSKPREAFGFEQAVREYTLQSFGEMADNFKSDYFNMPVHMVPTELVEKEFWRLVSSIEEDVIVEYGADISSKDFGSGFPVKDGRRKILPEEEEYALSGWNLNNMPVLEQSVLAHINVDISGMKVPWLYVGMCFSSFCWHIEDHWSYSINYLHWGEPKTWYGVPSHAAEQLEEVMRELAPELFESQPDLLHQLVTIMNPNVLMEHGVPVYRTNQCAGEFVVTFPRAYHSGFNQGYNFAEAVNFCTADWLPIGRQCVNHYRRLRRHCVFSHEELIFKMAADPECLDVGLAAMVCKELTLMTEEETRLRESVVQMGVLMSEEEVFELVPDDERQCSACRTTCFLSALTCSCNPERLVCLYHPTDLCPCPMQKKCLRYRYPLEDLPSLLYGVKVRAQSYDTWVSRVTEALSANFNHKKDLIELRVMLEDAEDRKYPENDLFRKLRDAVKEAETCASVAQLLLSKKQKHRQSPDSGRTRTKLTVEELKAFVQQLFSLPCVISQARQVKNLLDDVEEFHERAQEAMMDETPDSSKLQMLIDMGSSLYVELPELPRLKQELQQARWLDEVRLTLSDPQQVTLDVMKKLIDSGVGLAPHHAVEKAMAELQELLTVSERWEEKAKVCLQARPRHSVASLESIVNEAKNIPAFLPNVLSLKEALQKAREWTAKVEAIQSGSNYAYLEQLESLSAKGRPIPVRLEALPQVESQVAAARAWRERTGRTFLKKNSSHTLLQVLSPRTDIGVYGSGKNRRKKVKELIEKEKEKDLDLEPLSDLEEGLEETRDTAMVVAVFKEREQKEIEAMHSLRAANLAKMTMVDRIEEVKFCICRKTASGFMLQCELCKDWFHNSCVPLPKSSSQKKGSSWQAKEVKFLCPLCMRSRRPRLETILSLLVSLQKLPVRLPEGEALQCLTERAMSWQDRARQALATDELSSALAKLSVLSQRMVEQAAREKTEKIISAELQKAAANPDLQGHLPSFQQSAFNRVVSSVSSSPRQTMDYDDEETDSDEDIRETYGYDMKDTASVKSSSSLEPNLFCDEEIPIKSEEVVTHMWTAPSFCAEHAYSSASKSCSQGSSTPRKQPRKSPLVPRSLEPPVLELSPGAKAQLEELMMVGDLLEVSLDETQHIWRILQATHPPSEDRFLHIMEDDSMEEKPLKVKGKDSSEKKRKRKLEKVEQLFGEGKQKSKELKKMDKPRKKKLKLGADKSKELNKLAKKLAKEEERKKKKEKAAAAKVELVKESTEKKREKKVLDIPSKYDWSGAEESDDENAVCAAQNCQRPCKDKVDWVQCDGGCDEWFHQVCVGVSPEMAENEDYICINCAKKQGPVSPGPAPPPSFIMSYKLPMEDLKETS
row,SMILES,IC50 [nM]
1,Cc1ccc(C2CCN(C(=O)c3cc(C(C)C)n[nH]3)C2)nc1 (stereo not shown) [Example 105],2.3
2,CC(C)c1cc(C(=O)N2CCC(c3ccc(-c4ccccc4)cn3)C2)[nH]n1 (stereo not shown) [Example 106],1.4
3,Cc1cc(-c2cnn(C)c2)cc(C2=CCN(C(=O)c3cc(C(C)C)n[nH]3)C2)n1 [Example 108],18
4,CC(C)c1cc(C(=O)N2CCC(NC(=O)c3cccnc3)C2)[nH]n1 (stereo not shown) [Example 109],0.76
5,CC(C)c1cc(C(=O)N2CCC(NC(=O)c3ccc(Cl)cc3)C2)[nH]n1 (stereo not shown) [Example 111],0.75
6,CC(C)c1cc(C(=O)N2CCC(NC(=O)c3cnn(C)c3)C2)[nH]n1 (stereo not shown) [Example 113],0.9
7,COC(=O)NC1CCN(C(=O)c2cc(C(C)C)n[nH]2)C1 (stereo not shown) [Example 115],0.59
8,CC(C)c1cc(C(=O)N2CCC(NC(=O)Oc3ccccc3)C2)[nH]n1 (stereo not shown) [Example 116],2.1
9,CC(C)c1cc(C(=O)N2CCC(NC(=O)C3CNC3)C2)[nH]n1 (stereo not shown) [Example 118],5.2
10,CC(C)c1cc(C(=O)N2CCC(NC(=O)C3CCNC3)C2)[nH]n1 (stereo not shown) [Example 119],11
11,CC(C)c1cc(C(=O)N2CCC(NC(=O)c3cc4ccccc4[nH]3)C2)[nH]n1 (stereo not shown) [Example 122],0.49
12,CC(C)CC(=O)NC1CCN(C(=O)c2cc(C(C)C)n[nH]2)C1 (stereo not shown) [Example 125],0.32
13,CC(C)c1cc(C(=O)N2CCC(NC(=O)/C=C/c3ccccc3)C2)[nH]n1 (stereo not shown) [Example 126],0.89
14,COCC(=O)NC1CCN(C(=O)c2cc(C(C)C)n[nH]2)C1 (stereo not shown) [Example 127],0.42
15,CC1CC(C(=O)NC2CCN(C(=O)c3cc(C(C)C)n[nH]3)C2)C1 (stereo not shown) [Example 131],0.84
16,COc1cccc(OC)c1C(=O)NC1CCN(C(=O)c2cc(C(C)C)n[nH]2)C1 (stereo not shown) [Example 139],3
17,CC(C)c1cc(C(=O)N2CCC(NC(=O)c3ccccc3OC(F)(F)F)C2)[nH]n1 (stereo not shown) [Example 142],1.5
18,CC(C)c1cc(C(=O)N2CCC(NC(=O)C3CCCCC3)C2)[nH]n1 (stereo not shown) [Example 145],1.9
19,CC(C)c1cc(C(=O)N2CCC(N(C)C(=O)c3ccccc3)C2)[nH]n1 (stereo not shown) [Example 147],8.9
20,CCN(C(=O)c1ccccc1)C1CCN(C(=O)c2cc(C(C)C)n[nH]2)C1 (stereo not shown) [Example 148],12
21,CC(C)c1cc(C(=O)N2CCC(NC(=O)c3ccncc3)C2)[nH]n1 (stereo not shown) [Example 149],2.5
22,CC(C)c1cc(C(=O)N2CCC(NC(=O)C3CCOCC3)C2)[nH]n1 (stereo not shown) [Example 154],0.4
23,CC(C)c1cc(C(=O)N2CCC(NC(=O)C3CCCO3)C2)[nH]n1 (stereo not shown) [Example 161],0.38

row,SMILES,IC50 [nM]
1,CC(C)c1cc(C(=O)N2CCC(NC(=O)c3ccn(C(C)C)n3)C2)[nH]n1 (stereo not shown) [Example 162],5.1
2,CC(C)c1cc(C(=O)N2CCC(NC(=O)C3CC3c3ccccc3)C2)[nH]n1 (stereo not shown) [Example 163],0.58
3,CC(C)c1cc(C(=O)N2CCC(NC(=O)c3ccccc3Oc3ccccc3)C2)[nH]n1 (stereo not shown) [Example 164],0.7
4,CC(C)c1cc(C(=O)N2CCC(NC(=O)C3CCCOC3)C2)[nH]n1 (stereo not shown) [Example 166],0.52
5,CC(C)c1cc(C(=O)N2CCC(NC(=O)C3CC(N)C3)C2)[nH]n1 (stereo not shown) [Example 167],17
6,CC(C)c1cc(C(=O)N2CCC(NC(=O)COc3ccccc3)C2)[nH]n1 (stereo not shown) [Example 169],3.1
7,CC(O)C(=O)NC1CCN(C(=O)c2cc(C(C)C)n[nH]2)C1 (stereo not shown) [Example 170],1.6
8,CC(C)c1cc(C(=O)N2CCC(NC(=O)C3(C(F)(F)F)CC3)C2)[nH]n1 (stereo not shown) [Example 172],0.92
9,CC(C)c1cc(C(=O)N2CCC(NC(=O)C(C)(C)C(F)(F)F)C2)[nH]n1 (stereo not shown) [Example 173],1.6
10,CC(C)c1cc(C(=O)N2CCC(NC(=O)CC3CC3)C2)[nH]n1 (stereo not shown) [Example 175],0.4
11,COCCC(=O)NC1CCN(C(=O)c2cc(C(C)C)n[nH]2)C1 (stereo not shown) [Example 176],1.1
12,CC(C)c1cc(C(=O)N2CCC(NC(=O)C3(C)COC3)C2)[nH]n1 (stereo not shown) [Example 181],0.3
13,CC(C)c1cc(C(=O)N2CCC(NC(=O)C3(c4cccnc4)CC3)C2)n[nH]1 (stereo not shown) [Example 184],1.2
14,CC(C)c1cc(C(=O)N2CCC(C(=O)Nc3ccccc3)C2)[nH]n1 (stereo not shown) [Example 187],6.5
15,CCNC(=O)C1CCN(C(=O)c2cc(C(C)C)n[nH]2)C1 (stereo not shown) [Example 188],22
16,CC(C)c1cc(C(=O)N2CCC(NC(=O)C3(c4ccncc4)CC3)C2)[nH]n1 (stereo not shown) [Example 191],2
17,COCC1(C(=O)NC2CCN(C(=O)c3cc(C(C)C)n[nH]3)C2)CC1 (stereo not shown) [Example 192],0.58
18,CC(C)c1cc(C(=O)N2CCC(NC(=O)C3(C#N)CC3)C2)[nH]n1 (stereo not shown) [Example 193],0.41
19,CC(C)c1cc(C(=O)N2CCC(NC(=O)CC(F)(F)F)C2)[nH]n1 (stereo not shown) [Example 194],0.46
20,CC(C)c1cc(C(=O)N2CCC(NC(=O)C3(Oc4ccccc4)CC3)C2)[nH]n1 (stereo not shown) [Example 195],3.5
21,CC(C)c1cc(C(=O)N2CCC(NC(=O)c3ncccn3)C2)n[nH]1 (stereo not shown) [Example 197],0.31
22,COc1cccc(F)c1C(=O)NC1CCN(C(=O)c2cc(C(C)C)[nH]n2)C1 (stereo not shown) [Example 198],1.2
23,CC(C)c1cc(C(=O)N2CCC(NC(=O)c3cnccn3)C2)n[nH]1 (stereo not shown) [Example 199],1.1

# Continued, values first:
row,IC50 [nM],SMILES
1,0.25,CC(C)c1cc(C(=O)N2CCC(NC(=O)c3cccc(Cl)c3)C2)[nH]n1 (stereo not shown) [Example 110]
2,0.066,CC(C)c1cc(C(=O)N2CCC(NC(=O)c3ccn(C)n3)C2)[nH]n1 (stereo not shown) [Example 112]
3,0.28,CC(C)c1cc(C(=O)N2CCC(NC(=O)Nc3ccccc3)C2)[nH]n1 (stereo not shown) [Example 114]
4,0.053,CC(C)c1cc(C(=O)N2CCC(NC(=O)c3ccc4cc[nH]c4c3)C2)[nH]n1 (stereo not shown) [Example 120]
5,0.066,CC(C)c1cc(C(=O)N2CCC(NC(=O)c3ccc4[nH]ccc4c3)C2)[nH]n1 (stereo not shown) [Example 121]
6,0.26,CCC(=O)NC1CCN(C(=O)c2cc(C(C)C)n[nH]2)C1 (stereo not shown) [Example 123]
7,0.15,CCCC(=O)NC1CCN(C(=O)c2cc(C(C)C)n[nH]2)C1 (stereo not shown) [Example 124]
8,0.047,CCOc1ccccc1C(=O)NC1CCN(C(=O)c2cc(C(C)C)n[nH]2)C1 (stereo not shown) [Example 129]
9,0.14,CC(C)c1cc(C(=O)N2CCC(NC(=O)C3CC3C)C2)[nH]n1 (stereo not shown) [Example 130]
10,0.12,CC(C)c1cc(C(=O)N2CCC(NC(=O)C3CCOC3)C2)[nH]n1 (stereo not shown) [Example 132]
11,0.3,CC(C)c1cc(C(=O)N2CCC(NC(=O)C3CC(=O)C3)C2)[nH]n1 (stereo not shown) [Example 133]
12,0.27,CCC(C)(C)C(=O)NC1CCN(C(=O)c2cc(C(C)C)n[nH]2)C1 (stereo not shown) [Example 137]
13,0.26,CC(C)c1cc(C(=O)N2CCC(NC(=O)C3(c4ccccc4)CC3)C2)[nH]n1 (stereo not shown) [Example 138]
14,0.21,CC(C)c1cc(C(=O)N2CCC(NC(=O)C3(c4ccccn4)CC3)C2)n[nH]1 (stereo not shown) [Example 140]
15,0.13,CC(C)c1cc(C(=O)N2CCC(c3cc(-c4cnn(C)c4)cc(N)n3)C2)[nH]n1 (stereo not shown) [Example 144]
16,0.18,CC(C)c1cc(C(=O)N2CCC(NC(=O)c3ccccn3)C2)[nH]n1 (stereo not shown) [Example 146]
17,0.098,CC(C)c1cc(C(=O)N2CCC(NC(=O)c3ccccc3Cl)C2)[nH]n1 (stereo not shown) [Example 150]
18,0.083,CC(C)c1cc(C(=O)N2CCC(NC(=O)C3CCC3)C2)[nH]n1 (stereo not shown) [Example 152]

row,IC50 [nM],SMILES
1,0.075,CC(C)c1cc(C(=O)N2CCC(NC(=O)c3ccccc3F)C2)[nH]n1 (stereo not shown) [Example 155]
2,0.074,CC(C)c1cc(C(=O)N2CCC(NC(=O)c3cccc(F)c3)C2)[nH]n1 (stereo not shown) [Example 156]
3,0.2,CC(C)c1cc(C(=O)N2CCC(NC(=O)c3ccc(F)cc3)C2)[nH]n1 (stereo not shown) [Example 157]
4,0.073,COc1ccccc1C(=O)NC1CCN(C(=O)c2cc(C(C)C)n[nH]2)C1 (stereo not shown) [Example 158]
5,0.12,COc1cccc(C(=O)NC2CCN(C(=O)c3cc(C(C)C)n[nH]3)C2)c1 (stereo not shown) [Example 159]
6,0.27,COc1ccc(C(=O)NC2CCN(C(=O)c3cc(C(C)C)n[nH]3)C2)cc1 (stereo not shown) [Example 160]
7,0.11,CCn1ccc(C(=O)NC2CCN(C(=O)c3cc(C(C)C)n[nH]3)C2)n1 (stereo not shown) [Example 165]
8,0.2,CC(C)c1cc(C(=O)N2CCC(NC(=O)C(C)(C)C)C2)[nH]n1 (stereo not shown) [Example 168]
9,0.21,COC1(C(=O)NC2CCN(C(=O)c3cc(C(C)C)n[nH]3)C2)CC1 (stereo not shown) [Example 174]
10,0.078,CC(C)c1cc(C(=O)N2CCC(NC(=O)c3ccc4[nH]ccc4n3)C2)[nH]n1 (stereo not shown) [Example 177]
11,0.08,CC(C)c1cc(C(=O)N2CCC(NC(=O)c3ccc4c(ccn4C)c3)C2)[nH]n1 (stereo not shown) [Example 178]
12,0.24,CC(C)c1cc(C(=O)N2CCC(NC(=O)C3COC3)C2)[nH]n1 (stereo not shown) [Example 179]
13,0.11,CC(C)c1cc(C(=O)N2CCC(NC(=O)c3ccccc3OCCO)C2)[nH]n1 (stereo not shown) [Example 185]
14,0.038,CCC(C)c1cc(C(=O)N2CC[C@@H](NC(=O)[C@H]3C[C@H]3F)C2)[nH]n1 (stereo partly shown) [Example 189]
15,0.037,CCC(C)c1cc(C(=O)N2CC[C@@H](NC(=O)[C@@H]3C[C@@H]3F)C2)[nH]n1 (stereo partly shown) [Example 190]
16,0.11,CC(C)c1cc(C(=O)N2CCC(NC(=O)c3ccn(-c4cnn(C)c4)n3)C2)[nH]n1 (stereo not shown) [Example 196]
17,0.25,CC(C)c1cc(C(=O)N2CCC(NC(=O)c3ncccc3F)C2)n[nH]1 (stereo not shown) [Example 200]
18,0.092,CC(C)Oc1ccccc1C(=O)NC1CCN(C(=O)c2cc(C(C)C)n[nH]2)C1 (stereo not shown) [Example 201]
